Measurements reported in patent publication US20230364172A1, “MODULATION OF SOLUBILITY, PALATABILITY, ABSORPTION, AND BIOAVAILABILITY OF MITRAGYNA SPECIOSA-DERIVED COMPOUNDS FOR ORAL AND BUCCAL DELIVERY” (Syncotrance, LLC, priority 2022, published 2023).
Values joined by “and” are separate entries in the source; they are usually repeats but may differ in a detail not shown here. Equal values may be shown once. Where a name gives a salt, the structure may show the parent alone. Read-outs that look alike come from different tables or passages of the source.

Key:
[1] = Phase separation of Kratom/Premix emulsion by visual observation (Example C)
[2] = Premix vs water for taste masking of sports nutrition active ingredients (Example M); conditions: 1.5 g dose in Premix
Experimental: The supplements were suspended in a premix or water for reference. The active ingredients and their dosages were selected to simulate a sports nutrition drink prepared in a small blender (200 ml volume).
The panelists were asked to rate aversiveness/palatability and provide a brief description of off-flavors.

[3] = cited from earlier work
[4] = cited from earlier work; remark: listed apart in the source
[5] = cited from earlier work; remark: listed apart in the source
[6] = Physicochemical properties of mitragynine (pKa, Log P, aqueous solubility), literature
Source text: Mitragynine is an indole alkaloid comprising 66% of total alkaloids in extracts of Mitragyna speciosa leaves (Adkins, J. E., Boyer, E. W., McCurdy, C. R., 2011. Mitragyna speciosa, a psychoactive tree from Southeast Asia with opioid activity. Curr. Top. Med. Chem. 11, 1165-1175) (Ponglux, D., Wongseripipatana, S., Takayama, H., Kikuchi, M., Kurihara, M., Kitajima, M., Aimi, N., Sakai, S., 1994. A new indole alkaloid, 7 alpha-Hydroxy-7H-mitragynine, from Mitragyna speciosa in Thailand. Planta Med. 60, 580-581.). […] The compound is moderately stable at neutral pH (^˜3.5% degradation after 3 h) but degraded at pH 1.2 (by 26% degradation after 1-2 hr) (Manda, V. K., Avula, B., Ali, Z., Khan, I. A., Walker, L. A., Khan, S. I., 2014. Evaluation of in vitro absorption, distribution, metabolism, and excretion (ADME) properties of mitragynine, 7-hydroxymitragynine, and mitraphylline. Planta Med. 80, 568-576) (Ramanathan, S., Parthasarathy, S., Murugaiyah, V., Magosso, E., Tan, S. C., Mansor, S. M., 2015. Understanding the physicochemical properties of mitragynine, a principal alkaloid of Mitragyna speciosa, for preclinical evaluation. Molecules 20, 4915-4927). […]

[7] = rats; cited from earlier work
[8] = 1% w/v, 0.1 mM quinine hydrochloride solution; cited from earlier work

With Polysorbate 80 the phase separation ([1]; Polysorbate 80 0.3% w/v final, added to Final Mix) was “separated”, the phase separation ([1]; Polysorbate 80 0.3% w/v final, added to liquid extract) was “separated” and the phase separation ([1]; Polysorbate 80 0.3% w/v final, added to premix) was “separated”. The phase separation ([1]; Polysorbate 80 0.5% w/v final, added to Final Mix) was “separated”, the phase separation ([1]; Polysorbate 80 0.5% w/v final, added to liquid extract) was “stable” and the phase separation ([1]; Polysorbate 80 0.5% w/v final, added to premix) was “separated”. The phase separation ([1]; Polysorbate 80 1% w/v final, added to Final Mix) was “separated”, the phase separation ([1]; Polysorbate 80 1% w/v final, added to liquid extract) was “stable” and the phase separation ([1]; Polysorbate 80 1% w/v final, added to premix) was “stable”. For the same compound, the phase separation ([1]; Polysorbate 80 1.5% w/v final, added to Final Mix) was “stable”, the phase separation ([1]; Polysorbate 80 1.5% w/v final, added to liquid extract) was “stable” and the phase separation ([1]; Polysorbate 80 1.5% w/v final, added to premix) was “stable”.
For `NCC(=O)[O-].NCC(=O)[O-].[Mg+2]` [Magnesium Glycinate], the “pH in Premix” value [2] was “flavors. pH 10.3 caused”.
In the case of `CC[C@@H]1CN2CCc3c([nH]c4cccc(OC)c34)[C@H]2C[C@@H]1/C(=C\OC)C(=O)OC` (stereo in doubt) [mitragynine hydrochloride], the “absolute oral bioavailability of mitragynine” value ([3]; rats, oral in comparison to intravenous administration) is listed as 17.0%.
For `CC[C@@H]1CN2CCc3c([nH]c4cccc(OC)c34)[C@@H]2C[C@@H]1/C(=C\OC)C(=O)OC` [Mitragynine], the pKa [4] is listed as 8.1, the “solubility in aqueous media” value ([4]; pH 4) is listed as 130 μM and 51.8 μg/ml and the “solubility in a saliva type fluid” value ([4]; pH 6.5) is listed as 64.6±1.2 μcg/mL. For the same compound, the “solubility in aqueous media” value ([4]; pH 7) was 83 μM and 33.1 μg/ml, the degradation ([5]; neutral pH, after 3 h) was ~3.5% and the degradation ([5]; pH 1.2, after 1-2 hr) was 26%. For the same compound, the bioavailability ([3]; oral administration in rats, calculated from other studies by Ya et al.) was ~21%, the “Biopharmaceutical Classification System (BCS) class” value [6] was “Class II” and the “% AUCbrain/AUCplasma” value [7] was 65.8±4.5%.
In the case of phosphatidic acid, the “bitterness-depressing effect due to adsorption” value [8] is listed as 36.1%, the “bitterness-depressing effect due to suppression at the receptor site” value [8] is listed as 45.6% and the suppression of bitterness [8] is listed as 81.7%.
